Experimental data published in ChEMBL document CHEMBL5150076, “Discovery of Novel Orally Bioavailable Triazoles with Potent and Broad-Spectrum Antifungal Activity In Vitro and In Vivo” (J Med Chem, 2022).
In brackets after ≈: the same amount, converted by molar mass. Activity calls are given as the source filed them. The rule behind the calls is not given here.

Assays:
Candida albicans [1] = test: Antifungal activity against Candida albicans 12#; type: functional
Candida albicans [2] = test: Antifungal activity against Candida albicans 25#; type: functional
Candida albicans [3] = test: Antifungal activity against Candida albicans 162; type: functional
Candida albicans [4] = test: Antifungal activity against Candida albicans 14#; type: functional
Candida albicans [5] = test: Antifungal activity against Candida albicans 305; type: functional
Candida albicans [6] = test: Antifungal activity against Candida albicans 20#; type: functional
Candida albicans [7] = test: Antifungal activity against Candida albicans 28#; type: functional
Candida parapsilosis [8] = test: Antifungal activity against Candida parapsilosis 660; type: functional; conditions: Lodderomyces parapsilosis
Candida parapsilosis [9] = test: Antifungal activity against Candida parapsilosis 90018; type: functional; conditions: Lodderomyces parapsilosis
Candida parapsilosis [10] = test: Antifungal activity against Candida parapsilosis 700; type: functional; conditions: Lodderomyces parapsilosis
Candida tropicalis [11] = test: Antifungal activity against Candida tropicalis 112936; type: functional
Candida tropicalis [12] = test: Antifungal activity against Candida tropicalis ATCC750; type: functional
Pichia kudriavzevii [13] = test: Antifungal activity against Candida krusei 463; type: functional
Pichia kudriavzevii [14] = test: Antifungal activity against Candida krusei 629; type: functional
Pichia kudriavzevii [15] = test: Antifungal activity against Candida krusei 397; type: functional
Pichia kudriavzevii [16] = test: Antifungal activity against Candida krusei 467; type: functional
Nakaseomyces glabratus [17] = test: Antifungal activity against Candida glabrata ATCC2001; type: functional
[Candida] auris [18] = Antifungal activity against Candida auris 791; type: functional; conditions: Candidozyma auris
[Candida] auris [19] = Antifungal activity against Candida auris BS12372; type: functional; conditions: Candidozyma auris
[Candida] auris [20] = Antifungal activity against Candida auris 887; type: functional; conditions: Candidozyma auris
[Candida] auris [21] = Antifungal activity against Candida auris D12; type: functional; conditions: Candidozyma auris
Cryptococcus neoformans [22] = test: Antifungal activity against Cryptococcus neoformans H99 incubated for 72 hrs by microbroth dilution method; type: functional
Candida albicans [23] = test: Antifungal activity against Candida albicans SC5314 incubated for 24 hrs by microbroth dilution method; type: functional
Aspergillus fumigatus = test: Antifungal activity against Aspergillus fumigatus 7544 incubated for 48 hrs by microbroth dilution method; type: functional
Candida albicans [24] = test: Antifungal activity against Candida albicans Y0109; type: functional
Candida parapsilosis [25] = test: Antifungal activity against Candida parapsilosis 22019; type: functional; conditions: Lodderomyces parapsilosis
Cryptococcus neoformans [26] = test: Antifungal activity against Cryptococcus neoformans 32605; type: functional
Nakaseomyces glabratus [27] = test: Antifungal activity against Candida glabrata 537; type: functional
Trichophyton rubrum = test: Antifungal activity against Trichophyton rubrum cmccftla; type: functional
Nannizzia gypsea = test: Antifungal activity against Microsporum gypseum; type: functional
[28] = Induction of drug resistance in Candida albicans SC5314 assessed as increase in MIC after 2 weeks (reference value: 0.5 microg/ml); type: functional; conditions: SC5314, 336 h
[29] = Induction of drug resistance in Candida albicans SC5314 assessed as increase in MIC after 26 days; type: functional; conditions: SC5314, 624 h, time 26 day
[30] = biological target: T1, Lanosterol 14-alpha demethylase (Candida albicans (strain SC5314 / ATCC MYA-2876) (Yeast), UniProt P10613); test: Inhibition of CYP51 in Candida albicans SC5314 assessed as lanosterol level at 4 ug/ml measured after 12 hrs by GC-MS analysis (reference value: 2.18%); set-up: scale not given: the % may be the effect or the level left; conditions: at 4 µg/mL
T1 sequence (P10613 whole entry): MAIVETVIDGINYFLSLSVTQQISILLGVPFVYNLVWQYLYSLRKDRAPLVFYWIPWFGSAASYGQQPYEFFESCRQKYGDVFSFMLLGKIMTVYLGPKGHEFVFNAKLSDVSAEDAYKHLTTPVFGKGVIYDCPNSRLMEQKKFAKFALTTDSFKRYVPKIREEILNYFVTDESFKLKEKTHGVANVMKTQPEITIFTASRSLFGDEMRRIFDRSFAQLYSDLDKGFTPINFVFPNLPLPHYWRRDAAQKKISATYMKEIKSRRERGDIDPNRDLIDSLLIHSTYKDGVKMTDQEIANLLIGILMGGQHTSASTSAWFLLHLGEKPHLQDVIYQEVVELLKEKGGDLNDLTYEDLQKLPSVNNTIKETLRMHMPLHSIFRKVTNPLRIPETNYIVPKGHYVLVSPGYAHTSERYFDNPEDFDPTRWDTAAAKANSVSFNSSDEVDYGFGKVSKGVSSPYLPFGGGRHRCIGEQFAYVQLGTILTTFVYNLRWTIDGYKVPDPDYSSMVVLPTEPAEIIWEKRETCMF

[31] = biological target: T1, Lanosterol 14-alpha demethylase; test: Inhibition of CYP51 in Candida albicans SC5314 assessed as lanosterol level at 0.5 ug/ml measured after 12 hrs by GC-MS analysis (reference value: 2.18%); set-up: scale not given: the % may be the effect or the level left; conditions: at 0.5 µg/mL
[32] = biological target: T1, Lanosterol 14-alpha demethylase; test: Inhibition of CYP51 in Candida albicans SC5314 assessed as ergosterol level at 4 ug/ml measured after 12 hrs by GC-MS analysis (reference value: 72.58%); set-up: scale not given: the % may be the effect or the level left; conditions: at 4 µg/mL
[33] = biological target: T1, Lanosterol 14-alpha demethylase; test: Inhibition of CYP51 in Candida albicans SC5314 assessed as eburicol level at 4 ug/ml measured after 12 hrs by GC-MS analysis (reference value: 0.00%); set-up: scale not given: the % may be the effect or the level left; conditions: at 4 µg/mL
[34] = biological target: T1, Lanosterol 14-alpha demethylase; test: Inhibition of CYP51 in Candida albicans SC5314 assessed as eburicol level at 0.5 ug/ml measured after 12 hrs by GC-MS analysis (reference value: 0.00%); set-up: scale not given: the % may be the effect or the level left; conditions: at 0.5 µg/mL
[35] = biological target: T1, Lanosterol 14-alpha demethylase; test: Inhibition of CYP51 in Candida albicans SC5314 assessed as sterol level at 4 ug/ml measured after 12 hrs by GC-MS analysis (reference value: 25.23%); set-up: scale not given: the % may be the effect or the level left; conditions: at 4 µg/mL
[36] = biological target: T1, Lanosterol 14-alpha demethylase; test: Inhibition of CYP51 in Candida albicans SC5314 assessed as sterol level at 0.5 ug/ml measured after 12 hrs by GC-MS analysis (reference value: 25.23%); set-up: scale not given: the % may be the effect or the level left; conditions: at 0.5 µg/mL
Candida albicans [37] = test: Antifungal activity against Candida albicans SC5314 infected in ICR mouse assessed as delay in mortality at 0.5 mg/kg, po qd infected with fungus for 2 hrs prior to compound addition for 7 days and measured for 20 days; type: functional, organism-based; conditions: time 20.0 day
Candida albicans [38] = test: Antifungal activity against Candida albicans SC5314 infected in ICR mouse assessed as median survival time at 0.5 mg/kg, po qd infected with fungus for 2 hrs prior to compound addition for 7 days and measured for 20 days; type: functional; conditions: time 20 day
Cryptococcus neoformans [39] = test: Antifungal activity against Cryptococcus neoformans H99 infected in ICR mouse assessed as delay in mortality at 2 mg/kg, po qd infected with fungus for 2 hrs prior to compound addition for 7 days and measured for 20 days; type: functional, organism-based; conditions: time 20.0 day
Cryptococcus neoformans [40] = test: Antifungal activity against Cryptococcus neoformans H99 infected in ICR mouse assessed as median survival time at 2 mg/kg, po qd infected with fungus for 2 hrs prior to compound addition for 7 days and measured for 20 days; type: functional; conditions: time 20 day
Candida albicans [41] = test: Antifungal activity against Candida albicans 100 infected in ICR mouse assessed as delay in mortality at 0.25 mg/kg, po qd infected with fungus for 2 hrs prior to compound addition for 7 days and measured for 20 days; type: functional, organism-based; conditions: time 20.0 day
Candida albicans [42] = test: Antifungal activity against Candida albicans 100 infected in ICR mouse assessed as median survival time at 0.25 mg/kg, po qd infected with fungus for 2 hrs prior to compound addition for 7 days and measured for 20 days; type: functional; conditions: time 20 day
[43] = Cytotoxicity against HUVEC assessed as cell viability at 64 ug/ml incubated for 24 hrs by CCK-8 assay; type: toxicity, cell-based; conditions: human, HUVEC cells, at 64 µg/mL, read-out: Activity
[44] = Induction of hemolysis in rabbit RBC at 64 ug/ml incubated for 1 hr; type: toxicity, cell-based, Oryctolagus cuniculus, Erythrocyte; conditions: red blood cells, at 64 µg/mL, read-out: Activity
in vitro = conditions: human, Caco-2 cells; at 64 µg/mL

CCC(C)n1ncn(-c2ccc(N3CCN(c4ccc(OCC5COC(Cn6cncn6)(c6ccc(Cl)cc6Cl)O5)cc4)CC3)cc2)c1=O (centres undefined) [ITRACONAZOLE]
MIC (Candida albicans [1]): > 64 µg/mL | MIC (Candida albicans [2]): > 64 µg/mL | MIC (Candida albicans [3]): > 64 µg/mL | MIC (Candida albicans [4]): > 64 µg/mL | MIC (Candida albicans [5]): > 16 µg/mL | MIC (Candida albicans [6]): 0.5 µg/mL (≈ 0.709 µM) | MIC (Candida albicans [7]): 0.5 µg/mL (≈ 0.709 µM) | MIC (Candida parapsilosis [8]): 1 µg/mL (≈ 1.42 µM) | MIC (Candida parapsilosis [9]): 0.5 µg/mL (≈ 0.709 µM) | MIC (Candida parapsilosis [10]): 4 µg/mL (≈ 5.67 µM) | MIC (Candida tropicalis [11]): > 16 µg/mL | MIC (Candida tropicalis [12]): > 16 µg/mL | MIC (Pichia kudriavzevii [13]): 1 µg/mL (≈ 1.42 µM) | MIC (Pichia kudriavzevii [14]): 1 µg/mL (≈ 1.42 µM) | MIC (Pichia kudriavzevii [15]): 2 µg/mL (≈ 2.83 µM) | MIC (Pichia kudriavzevii [16]): 2 µg/mL (≈ 2.83 µM) | MIC (Nakaseomyces glabratus [17]): 2 µg/mL (≈ 2.83 µM) | MIC ([Candida] auris [18]): 4 µg/mL (≈ 5.67 µM) | MIC ([Candida] auris [19]): 1 µg/mL (≈ 1.42 µM) | MIC ([Candida] auris [20]): 4 µg/mL (≈ 5.67 µM) | MIC ([Candida] auris [21]): 4 µg/mL (≈ 5.67 µM)

OC(Cn1cncn1)(Cn1cncn1)c1ccc(F)cc1F [FLUCONAZOLE]
MIC (Cryptococcus neoformans [22]): 0.5 µg/mL (≈ 1.63 µM) | MIC (Candida albicans [23]): 0.5 µg/mL (≈ 1.63 µM) | MIC (Aspergillus fumigatus): > 64 µg/mL | MIC (Candida albicans [24]): 0.25 µg/mL (≈ 0.816 µM) | MIC (Candida parapsilosis [25]): 2 µg/mL (≈ 6.53 µM) | MIC (Cryptococcus neoformans [26]): 0.5 µg/mL (≈ 1.63 µM) | MIC (Nakaseomyces glabratus [27]): 2 µg/mL (≈ 6.53 µM) | MIC (Trichophyton rubrum): 8 µg/mL (≈ 26.1 µM) | MIC (Nannizzia gypsea): 32 µg/mL (≈ 104 µM) | MIC (Candida albicans [1]): > 64 µg/mL | MIC (Candida albicans [2]): > 64 µg/mL | MIC (Candida albicans [3]): > 64 µg/mL | MIC (Candida albicans [4]): > 64 µg/mL | MIC (Candida albicans [5]): > 64 µg/mL | MIC (Candida albicans [6]): 0.5 µg/mL (≈ 1.63 µM) | MIC (Candida albicans [7]): 2 µg/mL (≈ 6.53 µM) | MIC (Candida parapsilosis [8]): 0.5 µg/mL (≈ 1.63 µM) | MIC (Candida parapsilosis [9]): 0.5 µg/mL (≈ 1.63 µM) | MIC (Candida parapsilosis [10]): 2 µg/mL (≈ 6.53 µM) | MIC (Candida tropicalis [11]): > 64 µg/mL | MIC (Candida tropicalis [12]): > 64 µg/mL | MIC (Pichia kudriavzevii [13]): 4 µg/mL (≈ 13.1 µM) | MIC (Pichia kudriavzevii [14]): 4 µg/mL (≈ 13.1 µM) | MIC (Pichia kudriavzevii [15]): 2 µg/mL (≈ 6.53 µM) | MIC (Pichia kudriavzevii [16]): 4 µg/mL (≈ 13.1 µM) | MIC (Nakaseomyces glabratus [17]): 2 µg/mL (≈ 6.53 µM) | MIC ([Candida] auris [18]): > 64 µg/mL | MIC ([Candida] auris [19]): > 64 µg/mL | MIC ([Candida] auris [20]): > 64 µg/mL | MIC ([Candida] auris [21]): > 64 µg/mL | MIC [28]: 4 µg/mL | MIC [29]: 16 µg/mL | Activity [30]: 5.73% | Activity [31]: 18.14% | Activity [32]: 0.62% | Activity [33]: 87.88% | Activity [34]: 2.61% | Activity [35]: 5.77% | Activity [36]: 4.69% | Activity (Candida albicans [37]): Active | Time (Candida albicans [38]): 14 days | Activity (Cryptococcus neoformans [39]): Active | Time (Cryptococcus neoformans [40]): 8.5 days | Activity (Candida albicans [41]): Active | Time (Candida albicans [42]): 8.5 days | viability at 24 h, 64 ug/ml [43]: 88.4% | hemolysis at 1 h, 64 ug/ml [44]: 1.01% | viability at 24 h, 64 ug/ml (in vitro): 101%
